Where a SMILES comes first, the peptide text is derived from it.
What was measured:
[1] = system: Human immunodeficiency virus 1; test: Anti-HIV-1 activity of phytohemagglutininin activated peripheral blood mononuclear cells infected with the macrophage-tropic HIV-1 virus (JRCSF) at 100 nM; assay type: functional
[2] = system: Human immunodeficiency virus 1; test: Anti-HIV-1 activity of phytohemagglutininin activated peripheral blood mononuclear cells infected with the macrophage-tropic HIV-1 virus (JRCSF) at 10 nM; assay type: functional

SMILES: C[C@H](NC(=O)[C@@H]1CCCN1C(=O)[C@@H](NC(=O)[C@@H](NC(=O)[C@H](CC(=O)O)NC(=O)[C@H](CO)NC(=O)[C@@H](N)CO)[C@@H](C)O)[C@@H](C)O)C(=O)O (H-SSDTTPA-OH)
- inhibition at 0.1 µM [1]: 22%
- inhibition at 0.01 µM [2]: 22%

SMILES: C[C@H](NC(=O)[C@@H]1CCCN1C(=O)[C@@H](NC(=O)[C@@H](NC(=O)[C@H](CC(=O)O)NC(=O)[C@H](CO)NC(=O)[C@H](CO)NC(=O)[C@H](Cc1ccc(O)cc1)NC(=O)[C@@H]1CCCN1)[C@@H](C)O)[C@@H](C)O)C(=O)O [PYSSDTTPA] (H-PYSSDTTPA-OH)
- inhibition at 0.1 µM [1]: 39%
- inhibition at 0.01 µM [2]: 24%

SMILES: C[C@H](NC(=O)[C@@H]1CCCN1C(=O)[C@@H](NC(=O)[C@@H](N)[C@@H](C)O)[C@@H](C)O)C(=O)O (H-TTPA-OH)
- inhibition at 0.1 µM [1]: 0%
- inhibition at 0.01 µM [2]: 0%

SMILES: CC(=O)N[C@@H](CO)C(=O)N1CCC[C@H]1C(=O)N[C@@H](Cc1ccc(O)cc1)C(=O)N[C@@H](CO)C(=O)N[C@@H](CO)C(=O)N[C@@H](CC(=O)O)C(=O)N[C@H](C(=O)N[C@H](C(=O)N1CCC[C@H]1C(=O)N[C@@H](C)C(N)=O)[C@@H](C)O)[C@@H](C)O (Ac-SPYSSDTTPA-NH2)
- inhibition at 0.1 µM [1]: 69%
- inhibition at 0.01 µM [2]: 51%

SMILES: C[C@H](NC(=O)[C@@H]1CCCN1C(=O)[C@@H](NC(=O)[C@@H](NC(=O)[C@H](CC(=O)O)NC(=O)[C@H](CO)NC(=O)[C@H](CO)NC(=O)[C@@H](N)Cc1ccc(O)cc1)[C@@H](C)O)[C@@H](C)O)C(=O)O (H-YSSDTTPA-OH)
- inhibition at 0.1 µM [1]: 34%
- inhibition at 0.01 µM [2]: 41%

SMILES: C[C@H](NC(=O)[C@@H]1CCCN1C(=O)[C@@H](NC(=O)[C@@H](NC(=O)[C@@H](N)CC(=O)O)[C@@H](C)O)[C@@H](C)O)C(=O)O (H-DTTPA-OH)
- inhibition at 0.1 µM [1]: 29%
- inhibition at 0.01 µM [2]: 18%

SMILES: CC(=O)N[C@@H](CC(=O)O)C(=O)N[C@H](C(=O)N[C@H](C(=O)N1CCC[C@H]1C(=O)N[C@@H](C)C(N)=O)[C@@H](C)O)[C@@H](C)O (Ac-DTTPA-NH2)
- inhibition at 0.1 µM [1]: 46%
- inhibition at 0.01 µM [2]: 43%

SMILES: C[C@H](NC(=O)[C@@H]1CCCN1C(=O)[C@@H](NC(=O)[C@@H](NC(=O)[C@H](CC(=O)O)NC(=O)[C@@H](N)CO)[C@@H](C)O)[C@@H](C)O)C(=O)O (H-SDTTPA-OH)
- inhibition at 0.1 µM [1]: 4%
- inhibition at 0.01 µM [2]: 9%

From ChEMBL document CHEMBL1132264, “Low-molecular-weight anti-HIV-1 peptides from the amino-terminal sequence of RANTES: possible lead compounds for coreceptor-directed anti-HIV-1 agents” (1999)
